These results are taken from patent US20240317741A1, “NAPHTHYRIDINE DERIVATIVE AS ATR INHIBITOR AND METHOD FOR PREPARING SAME” (WIGEN BIOMEDICINE TECHNOLOGY (SHANGHAI) CO., LTD., priority 2021, published 2024).

The assay concerns MIA PaCa-2 cells. Put plainly: In-vitro anti-proliferative activity against MIA PaCa-2 cells. As to conditions: Homo sapiens, 72 h after dosing, intracellular ATP content. It counts as cell-based. On the procedure: MIA PaCa-2 cells were seeded on a 384-well plate at 3000 cells/well. After overnight adherence culture, DMSO or the compounds serially diluted 1:5 from 5 μM were added. […] The inhibition percentage of viable cells by the compounds was calculated by comparing with the DMSO group, and the IC50 value was calculated.

Molecules are shown by their SMILES. Bounds are passed on as bounds.

`C[C@@H]1COCCN1c1cc(CC#N)c2ccnc(-c3ccn[nH]3)c2n1` [Compound 1, (R)-2-(2-(3-methylmorpholino)-8-(1H-pyrazol-5-yl)-1,7-naphthyridin-4-yl)acetonitrile] came in with an IC50 greater than 5000 nM. The value for `CC(C#N)c1cc(N2CCOC[C@H]2C)nc2c(-c3ccn[nH]3)nccc12` (stereo partly drawn) [Compound 2, 2-(2-((R)-3-methylmorpholino)-8-(1H-pyrazol-5-yl)-1,7-naphthyridin-4-yl)propionitrile] was greater than 5000 nM. For `C[C@@H]1COCCN1c1cc(C(C)(C)C#N)c2ccnc(-c3ccn[nH]3)c2n1` [Compound 3, (R)-2-methyl-2-(2-(3-methylmorpholino)-8-(1H-pyrazol-5-yl)-1,7-naphthyridin-4-yl)propionitrile], the 50% inhibitory concentration (IC50) is greater than 5000 nM. The molecule `CCC(C#N)c1cc(N2CCOC[C@H]2C)nc2c(-c3ccn[nH]3)nccc12` (stereo partly shown) [Compound 4] registered a 50% inhibitory concentration (IC50) greater than 5000 nM. Next, `CC(C)C(C#N)c1cc(N2CCOC[C@H]2C)nc2c(-c3ccn[nH]3)nccc12` (stereo partly shown) [Compound 5]: 1000 to 5000 nM; `C[C@@H]1COCCN1c1cc(C(C#N)CC2CC2)c2ccnc(-c3ccn[nH]3)c2n1` (stereo partly shown) [Compound 6]: 1000 to 5000 nM. Next, `C=CC(C#N)c1cc(N2CCOC[C@H]2C)nc2c(-c3ccn[nH]3)nccc12` (stereo partly shown) [Compound 7]: greater than 5000 nM; `CC#CC(C#N)c1cc(N2CCOC[C@H]2C)nc2c(-c3ccn[nH]3)nccc12` (stereo partly shown) [Compound 8]: greater than 5000 nM. Next, `C[C@@H]1COCCN1c1cc(C(C#N)CCO)c2ccnc(-c3ccn[nH]3)c2n1` (stereo partly shown) [Compound 9]: 1000 to 5000 nM; `COCCC(C#N)c1cc(N2CCOC[C@H]2C)nc2c(-c3ccn[nH]3)nccc12` (stereo partly shown) [Compound 10]: 1000 to 5000 nM; `C[C@@H]1COCCN1c1cc(C(C#N)CC(N)=O)c2ccnc(-c3ccn[nH]3)c2n1` (stereo partly shown) [Compound 11]: 1000 to 5000 nM. `CCOP(=O)(CCC(C#N)c1cc(N2CCOC[C@H]2C)nc2c(-c3ccn[nH]3)nccc12)OCC` (stereo partly shown) [Compound 12] had an IC50 of 1000 to 5000 nM. The value for `CSCCC(C#N)c1cc(N2CCOC[C@H]2C)nc2c(-c3ccn[nH]3)nccc12` (stereo partly shown) [Compound 13] was 1000 to 5000 nM; that for `C[C@@H]1COCCN1c1cc(C(C#N)CC[S+](C)[O-])c2ccnc(-c3ccn[nH]3)c2n1` (stereo partly shown) [Compound 14] was greater than 5000 nM. `C[C@@H]1COCCN1c1cc(C(C#N)CCS(C)(=O)=O)c2ccnc(-c3ccn[nH]3)c2n1` (stereo partly shown) [Compound 15] gave an IC50 greater than 5000 nM.

Consider `C[C@@H]1COCCN1c1cc(C(C#N)CCN)c2ccnc(-c3ccn[nH]3)c2n1` (stereo partly shown) [Compound 16], for which the IC50 was in the range of 1000 to 5000 nM. `C[C@@H]1COCCN1c1cc(C(C#N)CCN(C)C)c2ccnc(-c3ccn[nH]3)c2n1` (stereo partly shown) [Compound 17] had an IC50 of 1000 to 5000 nM. Next, `C[C@@H]1COCCN1c1cc(C(C#N)CCN2CCCC2)c2ccnc(-c3ccn[nH]3)c2n1` (stereo partly shown) [Compound 18]: 1000 to 5000 nM; `C[C@@H]1COCCN1c1cc(C(C#N)CCN2CCN(C)CC2)c2ccnc(-c3ccn[nH]3)c2n1` (stereo partly shown) [Compound 19]: 1000 to 5000 nM; `C[C@@H]1COCCN1c1cc(C(C#N)C2CCC2)c2ccnc(-c3ccn[nH]3)c2n1` (stereo partly shown) [Compound 20]: greater than 5000 nM.

`C[C@@H]1COCCN1c1cc(C(C#N)C2CCCCC2)c2ccnc(-c3ccn[nH]3)c2n1` (stereo partly shown) [Compound 21] yielded an IC50 of 1000 to 5000 nM. As for `C[C@@H]1COCCN1c1cc(C(C#N)C2CCOCC2)c2ccnc(-c3ccn[nH]3)c2n1` (stereo partly shown) [Compound 22], the IC50 lay within 1000 to 5000 nM. Next, `C[C@@H]1COCCN1c1cc(C(C#N)C2CCC(N(C)C)CC2)c2ccnc(-c3ccn[nH]3)c2n1` (stereo partly shown) [Compound 23]: 1000 to 5000 nM. Take `C[C@@H]1COCCN1c1cc(C(C#N)C2CCN(C)CC2)c2ccnc(-c3ccn[nH]3)c2n1` (stereo partly shown) [Compound 24]: the IC50 lay within 1000 to 5000 nM. `C[C@@H]1COCCN1c1cc(C2(C#N)CCC2)c2ccnc(-c3ccn[nH]3)c2n1` [Compound 26] yielded an IC50 of 1000 to 5000 nM. The value for `C[C@@H]1COCCN1c1cc(C2(C#N)CC2)c2ccnc(-c3ccn[nH]3)c2n1` [Compound 28] was greater than 5000 nM. The value for `C[C@@H]1COCCN1c1cc(C2(C#N)CCSCC2)c2ccnc(-c3ccn[nH]3)c2n1` [Compound 30] was 1000 to 5000 nM. Next, `C[C@@H]1COCCN1c1cc(C2(C#N)CCCCCC2)c2ccnc(-c3ccn[nH]3)c2n1` [Compound 31]: less than 1000 nM; `C[C@@H]1COCCN1c1cc(C2(C#N)CCC3(CC3)CC2)c2ccnc(-c3ccn[nH]3)c2n1` [Compound 32]: less than 1000 nM; `C[C@@H]1COCCN1c1cc(C2(C#N)CCC(N3CCN(C)CC3)CC2)c2ccnc(-c3ccn[nH]3)c2n1` (stereo partly shown) [Compound 36]: less than 1000 nM.

`C[C@@H]1COCCN1c1cc(C2(C#N)CCNCC2)c2ccnc(-c3ccn[nH]3)c2n1` [Compound 37, (R)-4-(2-(3-methylmorpholino)-8-(1H-pyrazol-5-yl)-1,7-naphthyridin-4-yl)piperidine-4-carbonitrile] gave an IC50 of 1000 to 5000 nM. Next, `CC(=O)N1CCC(C#N)(c2cc(N3CCOC[C@H]3C)nc3c(-c4ccn[nH]4)nccc23)CC1` [Compound 38, (R)-1-acetyl-4-(2-(3-methylmorpholino)-8-(1H-pyrazol-5-yl)-1,7-naphthyridin-4-yl)piperidine-4-carbonitrile]: 1000 to 5000 nM. Next, `C[C@@H]1COCCN1c1cc(C2(C#N)CCN(S(C)(=O)=O)CC2)c2ccnc(-c3ccn[nH]3)c2n1` [Compound 39]: 1000 to 5000 nM. As to `CC(=O)N1CCCC(C#N)(c2cc(N3CCOC[C@H]3C)nc3c(-c4ccn[nH]4)nccc23)C1` (stereo partly shown) [Compound 40], the half-maximal inhibitory concentration (IC50) was greater than 5000 nM. Next, `C[C@@H]1COCCN1c1cc(C2(C#N)CCN(CC(F)(F)F)CC2)c2ccnc(-c3ccn[nH]3)c2n1` [Compound 41, (R)-4-(2-(3-methylmorpholino)-8-(1H-pyrazol-5-yl)-1,7-naphthyridin-4-yl)-1-(2,2,2-trifluoroethyl)piperidine-4-carbonitrile]: less than 1000 nM. Molecule `C[C@@H]1COCCN1c1cc(C2(C#N)CCN(CC(F)F)CC2)c2ccnc(-c3ccn[nH]3)c2n1` [Compound 42] gave an IC50 of less than 1000 nM. Next, `C[C@@H]1COCCN1c1cc(C2(C#N)CCN(C3CCN(C)CC3)CC2)c2ccnc(-c3ccn[nH]3)c2n1` [Compound 44]: less than 1000 nM.

Molecule `C[C@@H]1COCCN1c1cc(C2(C#N)CCN(c3ccc(Cl)cc3)CC2)c2ccnc(-c3ccn[nH]3)c2n1` [Compound 45, (R)-1-(4-chlorophenyl)-4-(2-(3-methylmorpholino)-8-(1H-pyrazol-5-yl)-1,7-naphthyridin-4-yl)piperidine-4-carbonitrile] displayed an IC50 of less than 1000 nM. Next, `C[C@@H]1COCCN1c1cc(C2(C#N)CCN(C3CC3)CC2)c2ccnc(-c3ccn[nH]3)c2n1` [Compound 46]: less than 1000 nM; `C[C@@H]1COCCN1c1cc(C2(C#N)CCN(c3ccc(F)cn3)CC2)c2ccnc(-c3ccn[nH]3)c2n1` [Compound 47]: 1000 to 5000 nM. Turning to `C[C@@H]1COCCN1c1cc(C2(C#N)CCN(c3cccc(F)c3)CC2)c2ccnc(-c3ccn[nH]3)c2n1` [Compound 48], the IC50 was less than 1000 nM. The value for `C[C@@H]1COCCN1c1cc(C2(C#N)CCN(c3ccccc3F)CC2)c2ccnc(-c3ccn[nH]3)c2n1` [Compound 49] was less than 1000 nM; that for `C[C@@H]1COCCN1c1cc(C2(C#N)CCN(c3ccc(F)cc3)CC2)c2ccnc(-c3ccn[nH]3)c2n1` [Compound 50] was less than 1000 nM.
